The values that follow come from patent US20240190847A1, “INDOLINE DERIVATIVES AS DDR1 AND DDR2 INHIBITORS” (CHIESI FARMACEUTICI S.P.A., priority 2021, published 2024).

Where two headings read alike, the source gives them in different places.

By Ki is commonly meant a measure of affinity in units of concentration, obtained from inhibition or displacement. In general, IC50 refers to the concentration that inhibits the measured activity by half.

In one experiment the target is DDR2. Briefly: DDR2 LanthaScreen Europium Kinase Binding assay. As for the experimental part:
(§1) DDR1 and DDR2 binding assays were performed using Life Technologies LanthaScreen™ Europium Kinase Binding assay. The compounds were incubated with 5 nM DDR1 (Carna Biosciences) or 5 nM DDR2 (Life Technologies) for 1 hour at room temperature in white 384-well OptiPlate (PerkinElmer), containing 20 nM or 10 nM Kinase Tracer 178 respectively and 2 nM Europium labelled anti-GST antibody (Life Technologies) in assay buffer (50 mM HEPES pH 7.5, 10 mM MgCl2, 1 mM EGTA and 0.01% BRIJ35). The ratio of fluorescence emission 665 nm/615 nm after excitation at 340 nm was obtained using the Tecan Spark 20M plate reader. IC50 values were determined in GraphPad Prism 8.0 software, using 4 parameter model: log(inhibitor) vs. response. IC50 values were converted in Ki using the Cheng-Prusoff equation (Ki=IC50/(1+[Tracer]/Kd).
(In general: Time-resolved FRET reads energy transfer from a long-lived donor to a nearby acceptor.)

Another experiment concerns the target DDR1. Briefly: DDR1 LanthaScreen Europium Kinase Binding assay. As for the experimental part: as §1
A further experiment deals with DDR1 receptor. Nature of the experiment: DDR1 cell based assay (PathHunter U2OS DDR1). To be noted: U2OS-DDR1 cells, bovine Type II Collagen 20 μg/ml stimulation. How it is done: The inhibition of DDR1 receptor activation by compounds was evaluated by PathHunter® U2OS DDR1 assay (Eurofins DiscoverX), according to the manufacturer's instructions. Briefly, U2O5-DDR1 cells were seeded in white 384-well plates at a density of 5000 cells/well and incubated for 2 hours at 37° C. and 5% CO2. Cells were then treated with compounds at different concentrations and incubated for 30 minutes, before stimulation with bovine Type II Collagen 20 μg/ml and incubation overnight at 37° C. and 5% CO2. PathHunter Detection Reagents were prepared according to the protocol provided by DiscoverX and 20 μl/well of this mix were added to each well. After incubating the plates for 1 hour at room temperature in the dark, luminescence signal was acquired with a plate reader. Raw data were normalized to vehicle control (0% for normalization) and positive control (100% for normalization; cells treated with 20 μg/ml collagen II) and IC50 parameters were calculated in GraphPad Prism 8.0 software, using sigmoidal dose-response curve fitting with variable slope.

The mark [1] stands for this setting: 5 nM DDR2, 1 hour at room temperature, Ki from IC50 by Cheng-Prusoff, read-out: Ki DDR2.
The mark [2] stands for this setting: 5 nM DDR1, 1 hour at room temperature, Ki from IC50 by Cheng-Prusoff, read-out: Ki DDR1.

Regarding `CN1CCN(Cc2ccc(NC(=O)c3ccc4c(c3)N(Cc3ccc(N)nc3)CC4)cc2C(F)(F)F)CC1` [Example 9, 1-((6-aminopyridin-3-yl)methyl)-N-(4-((4-methylpiperazin-1-yl)methyl)-3-(trifluoromethyl)phenyl)indoline-6-carboxamide], the Ki on DDR2 (setting [1]) was 25 to 50 nM; at DDR1 (setting [2]) it was less than 25 nM. This compound gave an IC50 in the experiment on DDR1 receptor of less than 25 nM.

For `CNC(=O)c1cc(CN2CCc3ccc(NC(=O)c4cc(-n5cnc(C)c5)cc(C(F)(F)F)c4)cc32)ccn1` [Example 6, N-methyl-4-((6-(3-(4-methyl-1H-imidazol-1-yl)-5-(trifluoromethyl)benzamido)indolin-1-yl)methyl)picolinamide], the Ki at DDR2 (setting [1]) and at DDR1 (setting [2]) was less than 25 nM each time. In addition, the half-maximal inhibitory concentration (IC50) in the experiment on DDR1 receptor fell in the range of 25 to 50 nM.

Take `Cc1cn(-c2cc(NC(=O)c3ccc4c(c3)N(c3cncnc3)CC4)cc(C(F)(F)F)c2)cn1` [Example C2, N-(3-(4-methyl-1H-imidazol-1-yl)-5-(trifluoromethyl)phenyl)-1-(pyrimidin-5-yl)indoline-6-carboxamide, reference compound]: the Ki at DDR2 (read-out: DDR2 Ki) is 4000 nM; on DDR1 (read-out: DDR1 Ki), 58000 nM.

As for `CN1CCN(Cc2cc(C(=O)Nc3ccc4c(c3)N(c3cncnc3)CC4)cc(C(F)(F)F)c2)CC1` [Example C3, 3-((4-methylpiperazin-1-yl)methyl)-N-(1-(pyrimidin-5-yl)indolin-6-yl)-5-(trifluoromethyl)benzamide, reference compound], the Ki at DDR2 (read-out: DDR2 Ki) and on DDR1 (read-out: DDR1 Ki) was 58000 nM each time.

For the compound `CN1CCN(Cc2cc(NC(=O)c3ccc4c(c3)N(c3cncnc3)CC4)cc(C(F)(F)F)c2)CC1` [Example C1, N-(3-((4-methylpiperazin-1-yl)methyl)-5-(trifluoromethyl)phenyl)-1-(pyrimidin-5-yl)indoline-6-carboxamide, reference compound], the Ki on DDR2 (read-out: DDR2 Ki) was determined as 50000 nM; on DDR1 (read-out: DDR1 Ki), 30000 nM.

In the case of `CC(=O)Nc1ncc(CN2CCc3ccc(C(=O)Nc4ccc(CN5CCN(C)CC5)c(C(F)(F)F)c4)cc32)cn1` [Example 15, 1-((2-acetamidopyrimidin-5-yl)methyl)-N-(4-((4-methylpiperazin-1-yl)methyl)-3-(trifluoromethyl)phenyl)indoline-6-carboxamide], at DDR1 (setting [2]), the Ki is less than 25 nM. In the experiment on DDR1 receptor, this compound came in with an IC50 of less than 25 nM.

Turning to `CN1CCN(Cc2ccc(NC(=O)c3ccc4c(c3)N(Cc3cncc(C(N)=O)c3)CC4)cc2C(F)(F)F)CC1` [Example 17, 1-((5-carbamoylpyridin-3-yl)methyl)-N-(4-((4-methylpiperazin-1-yl)methyl)-3-(trifluoromethyl)phenyl)indoline-6-carboxamide], the Ki at DDR2 (setting [1]) and at DDR1 (setting [2]) was less than 25 nM in each case. Also, the IC50 in the experiment on DDR1 receptor fell in the range of 25 to 50 nM.

As to `CN(C)CCn1cc(Nc2ncc(CN3CCc4ccc(C(=O)Nc5cc(CN6CCN(C)CC6)cc(C(F)(F)F)c5)cc43)cn2)cn1` [Example 20, 1-((2-((1-(2-(dimethylamino)ethyl)-1H-pyrazol-4-yl)amino)pyrimidin-5-yl)methyl)-N-(3-((4-methylpiperazin-1-yl)methyl)-5-(trifluoromethyl)phenyl)indoline-6-carboxamide], the inhibition constant Ki on DDR2 (setting [1]) and on DDR1 (setting [2]) was less than 25 nM in each case. In addition, the IC50 in the experiment with DDR1 receptor lay within 50 to 80 nM.

As to `CN1CCN(Cc2cc(NC(=O)c3ccc4c(c3)N(Cc3cncnc3)CC4)cc(C(F)(F)F)c2)CC1` [Example 3, N-(3-((4-methylpiperazin-1-yl)methyl)-5-(trifluoromethyl)phenyl)-1-(pyrimidin-5-ylmethyl)indoline-6-carboxamide], the Ki at DDR2 (setting [1]) and on DDR1 (setting [2]) was less than 25 nM in each case. The IC50 in the experiment with DDR1 receptor lay in the range of 50 to 80 nM.

`Cc1cn(-c2cc(NC(=O)c3ccc4c(c3)N(Cc3cncnc3)CC4)cc(C(F)(F)F)c2)cn1` [Example 1, N-(3-(4-methyl-1H-imidazol-1-yl)-5-(trifluoromethyl)phenyl)-1-(pyrimidin-5-ylmethyl)indoline-6-carboxamide]: the Ki at DDR2 (setting [1]) and on DDR1 (setting [2]) was less than 25 nM in each case. The same compound yielded an IC50 in the experiment with DDR1 receptor of 50 to 80 nM.
